According to patent publication US5416191A, “Bradykinin antagonists” (Cortech, Inc., priority 1993, dated 1995):
Like-named read-outs stand apart in the source and are kept apart here. Peptide text beside a SMILES is read from it.

Assays:
[1] = target: T1, bradykinin receptor of the B2 class (guinea-pig ileum) (Cavia porcellus, UniProt O70526); details: Table B; Cys position scan, monomers and BMH dimers
T1 sequence (O70526 1-372): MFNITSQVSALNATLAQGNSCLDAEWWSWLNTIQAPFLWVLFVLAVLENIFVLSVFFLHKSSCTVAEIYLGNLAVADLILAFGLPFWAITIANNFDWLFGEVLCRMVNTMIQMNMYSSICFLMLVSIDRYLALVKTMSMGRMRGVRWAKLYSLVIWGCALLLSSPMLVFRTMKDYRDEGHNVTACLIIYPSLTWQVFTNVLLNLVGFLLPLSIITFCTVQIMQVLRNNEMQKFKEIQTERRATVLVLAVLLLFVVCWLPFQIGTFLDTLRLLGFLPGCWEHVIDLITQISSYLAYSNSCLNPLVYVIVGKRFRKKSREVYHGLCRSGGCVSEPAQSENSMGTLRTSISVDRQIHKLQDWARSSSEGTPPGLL

[2] = target: T2, bradykinin receptor of the B2 class (rat uterus) (Rattus norvegicus, UniProt P25023); assay: Rat uterus (RU) in vitro, antagonism of bradykinin; details: Table C, rat uterus
T2 construct: concentration effect curves to bradykinin (BK) on rat uterus in vitro; from tissue; host or cells: rat uterus
T2 sequence (P25023 1-396): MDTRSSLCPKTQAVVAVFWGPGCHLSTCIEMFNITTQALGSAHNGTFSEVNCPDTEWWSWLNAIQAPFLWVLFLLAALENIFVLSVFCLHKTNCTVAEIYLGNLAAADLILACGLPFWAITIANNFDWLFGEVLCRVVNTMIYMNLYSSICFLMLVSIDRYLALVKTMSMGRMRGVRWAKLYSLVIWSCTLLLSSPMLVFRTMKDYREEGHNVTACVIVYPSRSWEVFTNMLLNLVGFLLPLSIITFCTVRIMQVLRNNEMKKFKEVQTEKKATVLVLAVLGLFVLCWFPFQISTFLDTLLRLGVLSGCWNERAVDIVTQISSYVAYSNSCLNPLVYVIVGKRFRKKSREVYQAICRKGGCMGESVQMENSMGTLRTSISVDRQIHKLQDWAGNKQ
Procedure: Thus in vitro studies were performed on standard assay systems, namely, guinea-pig ileum (GPI), rat uterus (RU) and rabbit jugular vein (RJV). […] The PA2 can be defined as the negative logarithm of the molar concentration of the antagonist in the presence of which the potency of the agonist is reduced two-fold, i.e. twice the amount of agonist is required to produce a given response in the presence of, than in the absence of, the antagonist. A high potency of antagonism is indicated by a high PA2 value, i.e., a low concentration of antagonist is effective.
The percentage recovery (% Rec) was also determined for compounds with respect to each assay.
With respect to duration of activity, it is noted that after exposure to the highest concentration of antagonist, each tissue was washed extensively and then assessed for recovery from the antagonist effect.
Potency in the rat uterus assay was assessed as described above and PA2 values determined.

[3] = target: T1, bradykinin receptor of the B2 class (guinea-pig ileum)
[4] = P.A. = Partial Agonist, read-out: pA2 MONOMER (converted)
[5] = read-out: pA2 DIMER (converted)

SMILES	pA2 GUINEA PIG ILEUM [1]	pA2 DIMER [2]	pA2 MONOMER ([2]; P.A. = Partial Agonist)	% REC MONOMER [2] [%]	Kb [2, 4] [nM]	Kb [3] [nM]	% REC DIMER [2] [%]	Kb [2, 5] [nM]
CC(C)C[C@H](NC(=O)[C@@H](Cc1ccccc1)NC(=O)[C@H](CO)NC(=O)[C@H](Cc1ccccc1)NC(=O)CNC(=O)[C@@H]1C[C@@H](O)CN1C(=O)[C@@H]1CCCN1C(=O)[C@H](CCCNC(=N)N)NC(=O)[C@H](N)CCCNC(=N)N)C(=O)N[C@@H](CSC1CC(=O)N(CCCCCCN2C(=O)CC(SC[C@H](NC(=O)[C@H](CC(C)C)NC(=O)[C@@H](Cc3ccccc3)NC(=O)[C@H](CO)NC(=O)[C@H](Cc3ccccc3)NC(=O)CNC(=O)[C@@H]3C[C@@H](O)CN3C(=O)[C@@H]3CCCN3C(=O)[C@H](CCCNC(=N)N)NC(=O)[C@H](N)CCCNC(=N)N)C(=O)O)C2=O)C1=O)C(=O)O (stereo partly shown) [CP-0160] (HELM PEPTIDE1{[dR].R.P.[Hyp].G.F.S.[dF].L.C}|PEPTIDE2{[dR].R.P.[Hyp].G.F.S.[dF].L.C}|CHEM1{[O=C1CC([*:1])C(=O)N1CCCCCCN1C(=O)CC([*:2])C1=O]}$PEPTIDE1,CHEM1,10:R3-1:R1|PEPTIDE2,CHEM1,10:R3-1:R2$$$V2.0)	Inactive	Inactive						
CC(C)C[C@H](NC(=O)[C@@H](Cc1ccccc1)NC(=O)[C@H](CO)NC(=O)[C@H](Cc1ccccc1)NC(=O)[C@@H](CS)NC(=O)[C@@H]1C[C@@H](O)CN1C(=O)[C@@H]1CCCN1C(=O)[C@H](CCCNC(=N)N)NC(=O)[C@H](N)CCCNC(=N)N)C(=O)N[C@@H](CCCNC(=N)N)C(=O)O [CP-0173] (HELM PEPTIDE1{[dR].R.P.[Hyp].[dC].F.S.[dF].L.R}$$$$V2.0)	Inactive		Inactive					
CC(C)C[C@H](NC(=O)[C@@H](Cc1ccccc1)NC(=O)[C@H](CO)NC(=O)[C@H](Cc1ccccc1)NC(=O)[C@@H](CSC1CC(=O)N(CCCCCCN2C(=O)CC(SC[C@@H](NC(=O)[C@@H]3C[C@@H](O)CN3C(=O)[C@@H]3CCCN3C(=O)[C@H](CCCNC(=N)N)NC(=O)[C@H](N)CCCNC(=N)N)C(=O)N[C@@H](Cc3ccccc3)C(=O)N[C@@H](CO)C(=O)N[C@H](Cc3ccccc3)C(=O)N[C@@H](CC(C)C)C(=O)N[C@@H](CCCNC(=N)N)C(=O)O)C2=O)C1=O)NC(=O)[C@@H]1C[C@@H](O)CN1C(=O)[C@@H]1CCCN1C(=O)[C@H](CCCNC(=N)N)NC(=O)[C@H](N)CCCNC(=N)N)C(=O)N[C@@H](CCCNC(=N)N)C(=O)O (stereo partly shown) [CP-0203] (HELM PEPTIDE1{[dR].R.P.[Hyp].[dC].F.S.[dF].L.R}|PEPTIDE2{[dR].R.P.[Hyp].[dC].F.S.[dF].L.R}|CHEM1{[O=C1CC([*:1])C(=O)N1CCCCCCN1C(=O)CC([*:2])C1=O]}$PEPTIDE1,CHEM1,5:R3-1:R1|PEPTIDE2,CHEM1,5:R3-1:R2$$$V2.0)	Inactive	Inactive						
CC(C)C[C@H](NC(=O)[C@@H](Cc1ccccc1)NC(=O)[C@H](CO)NC(=O)[C@H](Cc1ccccc1)NC(=O)CNC(=O)[C@@H]1C[C@@H](O)CN1C(=O)[C@@H]1CCCN1C(=O)[C@H](CCCNC(=N)N)NC(=O)[C@H](N)CCCNC(=N)N)C(=O)N[C@@H](CS)C(=O)O [CP-0148] (HELM PEPTIDE1{[dR].R.P.[Hyp].G.F.S.[dF].L.C}$$$$V2.0)	Inactive		Inactive	100	200			
CC(C)C[C@H](NC(=O)[C@@H](Cc1ccccc1)NC(=O)[C@H](CO)NC(=O)[C@H](Cc1ccccc1)NC(=O)CNC(=O)[C@@H]1C[C@@H](O)CN1C(=O)[C@H](CS)NC(=O)[C@H](CCCNC(=N)N)NC(=O)[C@H](N)CCCNC(=N)N)C(=O)N[C@@H](CCCNC(=N)N)C(=O)O [CP-0142] (HELM PEPTIDE1{[dR].R.C.[Hyp].G.F.S.[dF].L.R}$$$$V2.0)				80	398	~2000		
CC(C)C[C@H](NC(=O)[C@@H](Cc1ccccc1)NC(=O)[C@H](CO)NC(=O)[C@H](Cc1ccccc1)NC(=O)CNC(=O)[C@@H]1C[C@@H](O)CN1C(=O)[C@@H]1CCCN1C(=O)[C@H](CCCNC(=N)N)NC(=O)[C@H](N)CS)C(=O)N[C@@H](CCCNC(=N)N)C(=O)O [CP-0149] (HELM PEPTIDE1{[dC].R.P.[Hyp].G.F.S.[dF].L.R}$$$$V2.0)				75	79.4	~501		
CC(C)C[C@H](NC(=O)[C@@H](Cc1ccccc1)NC(=O)[C@H](CO)NC(=O)[C@H](Cc1ccccc1)NC(=O)CNC(=O)[C@@H]1C[C@@H](O)CN1C(=O)[C@@H]1CCCN1C(=O)[C@H](CCCNC(=N)N)NC(=O)[C@@H](N)CS)C(=O)N[C@@H](CCCNC(=N)N)C(=O)O [CP-0140] (HELM PEPTIDE1{C.R.P.[Hyp].G.F.S.[dF].L.R}$$$$V2.0)				50	100	~316		
CC(C)C[C@H](NC(=O)[C@@H](Cc1ccccc1)NC(=O)[C@H](CO)NC(=O)[C@H](Cc1ccccc1)NC(=O)CNC(=O)[C@@H]1C[C@@H](O)CN1C(=O)[C@@H]1CCCN1C(=O)[C@H](CSC1CC(=O)N(CCCCCCN2C(=O)CC(SC[C@H](NC(=O)[C@H](N)CCCNC(=N)N)C(=O)N3CCC[C@H]3C(=O)N3C[C@H](O)C[C@H]3C(=O)NCC(=O)N[C@@H](Cc3ccccc3)C(=O)N[C@@H](CO)C(=O)N[C@H](Cc3ccccc3)C(=O)N[C@@H](CC(C)C)C(=O)N[C@@H](CCCNC(=N)N)C(=O)O)C2=O)C1=O)NC(=O)[C@H](N)CCCNC(=N)N)C(=O)N[C@@H](CCCNC(=N)N)C(=O)O (stereo partly shown) [CP-0153] (HELM PEPTIDE1{[dR].C.P.[Hyp].G.F.S.[dF].L.R}|PEPTIDE2{[dR].C.P.[Hyp].G.F.S.[dF].L.R}|CHEM1{[O=C1CC([*:1])C(=O)N1CCCCCCN1C(=O)CC([*:2])C1=O]}$PEPTIDE1,CHEM1,2:R3-1:R1|PEPTIDE2,CHEM1,2:R3-1:R2$$$V2.0)						~20	100	20
CC(C)C[C@H](NC(=O)[C@@H](Cc1ccccc1)NC(=O)[C@H](CO)NC(=O)[C@H](CS)NC(=O)CNC(=O)[C@@H]1C[C@@H](O)CN1C(=O)[C@@H]1CCCN1C(=O)[C@H](CCCNC(=N)N)NC(=O)[C@H](N)CCCNC(=N)N)C(=O)N[C@@H](CCCNC(=N)N)C(=O)O [CP-0144] (HELM PEPTIDE1{[dR].R.P.[Hyp].G.C.S.[dF].L.R}$$$$V2.0)				95	63.1	~501		
CC(C)C[C@H](NC(=O)[C@@H](Cc1ccccc1)NC(=O)[C@H](CO)NC(=O)[C@H](Cc1ccccc1)NC(=O)CNC(=O)[C@H](CSC1CC(=O)N(CCCCCCN2C(=O)CC(SC[C@H](NC(=O)[C@@H]3CCCN3C(=O)[C@H](CCCNC(=N)N)NC(=O)[C@H](N)CCCNC(=N)N)C(=O)NCC(=O)N[C@@H](Cc3ccccc3)C(=O)N[C@@H](CO)C(=O)N[C@H](Cc3ccccc3)C(=O)N[C@@H](CC(C)C)C(=O)N[C@@H](CCCNC(=N)N)C(=O)O)C2=O)C1=O)NC(=O)[C@@H]1CCCN1C(=O)[C@H](CCCNC(=N)N)NC(=O)[C@H](N)CCCNC(=N)N)C(=O)N[C@@H](CCCNC(=N)N)C(=O)O (stereo partly shown) [CP-0155] (HELM PEPTIDE1{[dR].R.P.C.G.F.S.[dF].L.R}|PEPTIDE2{[dR].R.P.C.G.F.S.[dF].L.R}|CHEM1{[O=C1CC([*:1])C(=O)N1CCCCCCN1C(=O)CC([*:2])C1=O]}$PEPTIDE1,CHEM1,4:R3-1:R1|PEPTIDE2,CHEM1,4:R3-1:R2$$$V2.0)						~79.4	100	631
CC(C)C[C@H](NC(=O)[C@@H](Cc1ccccc1)NC(=O)[C@H](CO)NC(=O)[C@H](CSC1CC(=O)N(CCCCCCN2C(=O)CC(SC[C@H](NC(=O)CNC(=O)[C@@H]3C[C@@H](O)CN3C(=O)[C@@H]3CCCN3C(=O)[C@H](CCCNC(=N)N)NC(=O)[C@H](N)CCCNC(=N)N)C(=O)N[C@@H](CO)C(=O)N[C@H](Cc3ccccc3)C(=O)N[C@@H](CC(C)C)C(=O)N[C@@H](CCCNC(=N)N)C(=O)O)C2=O)C1=O)NC(=O)CNC(=O)[C@@H]1C[C@@H](O)CN1C(=O)[C@@H]1CCCN1C(=O)[C@H](CCCNC(=N)N)NC(=O)[C@H](N)CCCNC(=N)N)C(=O)N[C@@H](CCCNC(=N)N)C(=O)O (stereo partly shown) [CP-0156] (HELM PEPTIDE1{[dR].R.P.[Hyp].G.C.S.[dF].L.R}|PEPTIDE2{[dR].R.P.[Hyp].G.C.S.[dF].L.R}|CHEM1{[O=C1CC([*:1])C(=O)N1CCCCCCN1C(=O)CC([*:2])C1=O]}$PEPTIDE1,CHEM1,6:R3-1:R1|PEPTIDE2,CHEM1,6:R3-1:R2$$$V2.0)						~12.6	75	7.94
